In patent US20020019336A1, “Sustained release drug compositions” (priority 2000, published 2002):

Test system: neovascularization
Experiment: neovascularization after subcutaneous injection or implantation in rats
Type: in vivo
Conditions: back subcutaneous tissue, seven days after administration, 1 μg bFGF
Experimental: The compositions listed in Table 1 below were generated essentially according to Example 9, with modifications as indicated.
All compositions, including controls, were injected or implanted into the back subcutaneous tissue of rats. It was known that bFGF promotes neovascularization. Seven days after administration, each rat was evaluated for neovascularization at the area peripheral to the site of injection or implantation.
To distinguish newly synthesized blood vessels from pre-existing ones, lipid microspheres were injected into […] just superficial to the pre-existing capillary bed early in the experiment (at day 0). At the end of the experiment, the neovascular capillaries, if any, would reside superficial to the microspheres. Thus, new capillaries were easily identified by seeing whether there was vascularization above (superficial to) the microspheres at the end of the experiment.

basic fibroblast growth factor [bFGF alone]
neovascularization at area peripheral to site of injection or implantation: no neovascularization
